# Reference: patent US8293729B2 (Boehringer Ingelheim International GmbH, priority 2009, dated 2012)
# Target: T1, human GPR119 receptor (Homo sapiens, UniProt Q8TDV5, S329A/T327A)
# T1 construct: N-terminal leader […]; expressed in transfected cells
# T1 sequence (Q8TDV5 with tags, fused parts or gaps T327A/S329A): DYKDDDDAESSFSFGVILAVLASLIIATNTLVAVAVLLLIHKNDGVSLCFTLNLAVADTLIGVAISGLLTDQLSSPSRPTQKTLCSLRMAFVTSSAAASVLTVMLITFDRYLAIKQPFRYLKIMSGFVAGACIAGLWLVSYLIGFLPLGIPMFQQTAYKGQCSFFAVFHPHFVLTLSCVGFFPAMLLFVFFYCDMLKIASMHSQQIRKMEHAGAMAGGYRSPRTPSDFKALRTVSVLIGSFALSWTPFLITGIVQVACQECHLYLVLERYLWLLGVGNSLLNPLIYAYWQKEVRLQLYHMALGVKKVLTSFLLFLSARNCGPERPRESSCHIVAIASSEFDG
# Test: cAMP assay (LANCE cAMP-384) in HEK293 cells stably expressing mutant human GPR119 receptor
# Type: cell-based
# Conditions: HEK293, 20 min; 10 μM; the 28th table; read-out: stimulation in % at 10 μM
# How it was run: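 Agonist EC50 came from nonlinear regression over 12 concentrations (30 μM–100 pM), with % stimulation at 10 μM where no EC50 was obtained. Cells: stable HEK293 with mutant human GPR119 (T327A/S329A), 20 min compound at 37° C; cAMP read by LANCE kit with standard curve.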
row,Structure (SMILES),activation at 10 µM [%]
1,CC(C)OC(=O)N1CCC(ON=C2CCN(c3ncc(-n4cccn4)cn3)CC2)CC1 [Example 51-5],96
2,CC(C)OC(=O)N1CCC(ON=C2CCN(c3ncc(N4CCCC4=O)cn3)CC2)CC1 [Example 51-6],98

# Same assay, conditions: cAMP accumulation, HEK293 cells stably expressing mutant human GPR119; read-out: EC50
row,Structure (SMILES),EC50 [nM]
1,"CC(C)OC(=O)N1CCC(ON=C2CCN(c3cc(F)c(C(=O)NCC(=O)O)cc3F)CC2)CC1 [Example 30-1, 4-{1-[4-(Carboxymethyl-carbamoyl)-2,5-difluoro-phenyl]-piperidin-4-ylideneaminooxy}-piperidine-1-carboxylic acid isopropyl ester]",1130
2,CC(C)OC(=O)N1CCC(ON=C2CCN(c3cc(F)c(C(=O)NCCC(=O)O)cc3F)CC2)CC1 [Example 30-2],1150
3,"CNCCNC(=O)c1cc(F)c(N2CCC(=NOC3CCN(C(=O)OC(C)C)CC3)CC2)cc1F [Example 31-1, 4-{1-[2,5-Difluoro-4-(2-methylamino-ethylcarbamoyl)-phenyl]-piperidin-4-ylideneaminooxy}-piperidine-1-carboxylic acid isopropyl ester]",424
4,CC(C)OC(=O)N1CCC(ON=C2CCN(c3cc(F)c(C(=O)NCCN)cc3F)CC2)CC1 [Example 31-2],348
5,CC(C)OC(=O)N1CCC(ON=C2CCN(c3cc(F)c(C(=O)NCCCN)cc3F)CC2)CC1 [Example 31-3],542
6,"CC(C)OC(=O)N1CCC(ON=C2CCN(c3ccccc3)CC2)CC1 [Example 32-1, 4-(1-Phenyl-piperidin-4-ylideneaminooxy)-piperidine-1-carboxylic acid isopropyl ester]",> 10000
7,CC(C)OC(=O)N1CCC(ON=C2CCN(c3cc(F)ccc3F)CC2)CC1 [Example 32-2],2860
8,CC(C)OC(=O)N1CCC(ON=C2CCN(c3cccc(S(C)(=O)=O)c3)CC2)CC1 [Example 32-3],> 10000
9,"CC(=O)Nc1cc(F)c(N2CCC(=NOC3CCN(C(=O)OC(C)C)CC3)CC2)cc1F [Example 35-1, 4-[1-(4-Acetylamino-2,5-difluoro-phenyl)-piperidin-4-ylideneaminooxy]-piperidine-1-carboxylic acid isopropyl ester]",17
10,CCOC(=O)Nc1cc(F)c(N2CCC(=NOC3CCN(C(=O)OC(C)C)CC3)CC2)cc1F [Example 35-2],18
11,"CC(C)OC(=O)N1CCC(ON=C2CCN(c3cc(F)c(NC(=N)N)cc3F)CC2)CC1 [Example 36-1, 4-[1-(2,5-Difluoro-4-guanidino-phenyl)-piperidin-4-ylideneaminooxy]-piperidine-1-carboxylic acid isopropyl ester]",1320
12,"CC(C)OC(=O)N1CCC(ON=C2CCN(c3cc(F)c(NC(N)=O)cc3F)CC2)CC1 [Example 37-1, 4-[1-(2,5-Difluoro-4-ureido-phenyl)-piperidin-4-ylideneaminooxy]-piperidine-1-carboxylic acid isopropyl ester]",71
13,CC(C)OC(=O)N1CCC(ON=C2CCN(c3cc(F)c(NS(N)(=O)=O)cc3F)CC2)CC1 [Example 38-1],197
14,"CC(C)OC(=O)N1CCC(ON=C2CCN(c3cc(F)c(/C=C/C(=O)O)cc3F)CC2)CC1 [Example 40-1, 4-{1-[4-((E)-2-Carboxy-vinyl)-2,5-difluoro-phenyl]-piperidin-4-ylideneaminooxy}-piperidine-1-carboxylic acid isopropyl ester]",2570
15,"CC(C)OC(=O)N1CCC(ON=C2CCN(c3cc(F)c(COC(=O)[C@@H](NC(=O)OC(C)(C)C)C(C)C)cc3F)CC2)CC1 [Example 42-1, 4-{1-[4-((S)-2-tert-Butoxycarbonylamino-3-methyl-butyryloxymethyl)-2,5-difluoro-phenyl]-piperidin-4-ylideneaminooxy}-piperidine-1-carboxylic acid isopropyl ester]",928
16,"CC(C)OC(=O)N1CCC(ON=C2CCN(c3cc(F)c([S+](C)[O-])cc3F)CC2)CC1 (stereo not shown) [Example 43-1, 4-[1-(2,5-Difluoro-4-methanesulfinyl-phenyl)-piperidin-4-ylideneaminooxy]-piperidine-1-carboxylic acid isopropyl ester]",58
17,"CC(C)OC(=O)N1CCC(ON=C2CCN(c3cc(F)c(NS(C)(=O)=O)cc3F)CC2)CC1 [Example 44-1, 4-[1-(2,5-Difluoro-4-methanesulfonylamino-phenyl)-piperidin-4-ylideneaminooxy]-piperidine-1-carboxylic acid isopropyl ester]",170
18,"CC(C)OC(=O)N1CCC(ON=C2CCN(c3cc(F)c(S(=O)(=O)C4CC4)cc3F)CC2)CC1 [Example 47-1, 4-[1-(4-Cyclopropanesulfonyl-2,5-difluoro-phenyl)-piperidin-4-ylideneaminooxy]-piperidine-1-carboxylic acid isopropyl ester]",43
19,"COCc1cc(F)c(N2CCC(=NOC3CCN(C(=O)OC(C)C)CC3)CC2)cc1F [Example 49-1, 4-[1-(2,5-Difluoro-4-methoxymethyl-phenyl)-piperidin-4-ylideneaminooxy]-piperidine-1-carboxylic acid isopropyl ester]",265
20,"CC(C)OC(=O)N1CCC(ON=C2CCN(c3cc(F)c(C(C)O)cc3F)CC2)CC1 (stereo not shown) [Example 50-1, 4-{1-[2,5-Difluoro-4-(1-hydroxy-ethyl)-phenyl]-piperidin-4-ylideneaminooxy}-piperidine-1-carboxylic acid isopropyl ester]",48
21,"CC(C)OC(=O)N1CCC(ON=C2CCN(c3ncc(CO)cc3F)CC2)CC1 [Example 53-1, 4-(3′-Fluoro-5′-hydroxymethyl-2,3,5,6-tetrahydro-[1,2′]bipyridinyl-4-ylideneaminooxy)-piperidine-1-carboxylic acid isopropyl ester]",224

# Same assay, conditions: the 19th table; unit inferred; read-out: EC 50
row,Structure (SMILES),EC50 [nM]
1,CCc1cnc(N2CCC(ON=C3CCN(c4cc(F)c(C(=O)NCC5CCCN5C)cc4F)CC3)CC2)nc1 (stereo not shown) [Example 29-137],212
2,CCc1cnc(N2CCC(ON=C3CCN(c4cc(F)c(C(=O)NCC5CCCN5C)cc4F)CC3)CC2)nc1 (stereo not shown) [Example 29-138],185
3,CCc1cnc(N2CCC(ON=C3CCN(c4cc(F)c(C(=O)NCC5CCNC5)cc4F)CC3)CC2)nc1 (stereo not shown) [Example 29-139],92

# Same assay, conditions: the 25th table; read-out: EC50
row,Structure (SMILES),EC50 [nM]
1,"COC(=O)/C=C/c1cc(F)c(N2CCC(=NOC3CCN(C(=O)OC(C)C)CC3)CC2)cc1F [Example 39-1, 4-{1-[2,5-Difluoro-4-((E)-2-methoxycarbonyl-vinyl)-phenyl]-piperidin-4-ylideneaminooxy}-piperidine-1-carboxylic acid isopropyl ester]",46
2,CC(C)OC(=O)N1CCC(ON=C2CCN(c3cc(F)c(/C=C/C#N)cc3F)CC2)CC1 [Example 39-2],157

# Same assay, conditions: the 26th table; read-out: EC50
row,Structure (SMILES),EC50 [nM]
1,"CC(C)OC(=O)N1CCC(ON=C2CCN(c3ncc(S(C)(=O)=O)cc3F)CC2)CC1 [Example 46-1, 4 (5′-METHYLSULFONYL-3′-FLUORO-2,3,5,6-TETRAHYDRO-[1,2′]BIPYRIDINYL-4-YLIDENEAMINOOXY)-PIPERIDINE-1-CARBOXYLIC ACID ISOPROPYL ESTER]",131
2,CC(C)OC(=O)N1CCC(ON=C2CCN(c3cc(F)c(S(C)(=O)=O)cc3F)CC2)CC1 [Example 46-2],28
3,CC(C)OC(=O)N1CCC(ON=C2CCN(c3ccc(S(C)(=O)=O)cn3)CC2)CC1 [Example 46-3],614
4,CC(C)OC(=O)N1CCC(ON=C2CCN(c3ncc(S(C)(=O)=O)cn3)CC2)CC1 [Example 46-4],157

# Same assay, conditions: the 27th table; read-out: EC50
row,Structure (SMILES),EC50 [nM]
1,"CC(C)OC(=O)N1CCC(ON=C2CCN(c3cc(F)c(CO)cc3F)CC2)CC1 [Example 48-1, 4-[1-(2,5-Difluoro-4-hydroxymethyl-phenyl)-piperidin-4-ylideneaminooxy]-piperidine-1-carboxylic acid isopropyl ester]",9
2,[2H]C([2H])(O)c1cc(F)c(N2CCC(=NOC3CCN(C(=O)OC(C)C)CC3)CC2)cc1F [Example 48-2],18

# Same assay, conditions: the 28th table; read-out: EC50
row,Structure (SMILES),EC50 [nM]
1,"CC(C)OC(=O)N1CCC(ON=C2CCN(c3ncc(-n4cncn4)cc3F)CC2)CC1 [Example 51-1, 4-(3′-Fluoro-5′-[1,2,4]triazol-1-yl-2,3,5,6-tetrahydro-[1,2]bipyridinyl-4-ylideneaminooxy)-piperidine-1-carboxylic acid isopropyl ester]",327
2,CC(C)OC(=O)N1CCC(ON=C2CCN(c3ncc(-n4cccn4)cc3F)CC2)CC1 [Example 51-2],558
3,CC(C)OC(=O)N1CCC(ON=C2CCN(c3ncc(N4CCCC4=O)cc3F)CC2)CC1 [Example 51-3],401
4,CC(C)OC(=O)N1CCC(ON=C2CCN(c3ncc(-n4cncn4)cn3)CC2)CC1 [Example 51-4],735

# Same assay, conditions: the 29th table; read-out: EC50
row,Structure (SMILES),EC50 [nM]
1,"CC(C)OC(=O)N1CCC(ON=C2CCN(c3ccc(CO)c(F)c3)CC2)CC1 [Example 52-1, 4-[1-(3-Fluoro-4-hydroxymethyl-phenyl)-piperidin-4-ylideneaminooxy]-piperidine-1-carboxylic acid isopropyl ester]",> 10000
2,CC(C)OC(=O)N1CCC(ON=C2CCN(c3ccc(CO)cc3F)CC2)CC1 [Example 52-3],128
